The values below come from patent US11976061B2, “Preparation of benzimidazolone derivatives as novel diacylglyceride O-acyltransferase 2 inhibitors” (Merck Sharp & Dohme LLC, priority 2020, dated 2024).

Structures are written as SMILES.

One test deals with T1, human DGAT2 (hDGAT2) (Homo sapiens, UniProt Q96PD7).
T1 construct: made in house; host or cells: Sf-9 insect cells (baculovirus), membrane fraction
T1 sequence (Q96PD7 1-388): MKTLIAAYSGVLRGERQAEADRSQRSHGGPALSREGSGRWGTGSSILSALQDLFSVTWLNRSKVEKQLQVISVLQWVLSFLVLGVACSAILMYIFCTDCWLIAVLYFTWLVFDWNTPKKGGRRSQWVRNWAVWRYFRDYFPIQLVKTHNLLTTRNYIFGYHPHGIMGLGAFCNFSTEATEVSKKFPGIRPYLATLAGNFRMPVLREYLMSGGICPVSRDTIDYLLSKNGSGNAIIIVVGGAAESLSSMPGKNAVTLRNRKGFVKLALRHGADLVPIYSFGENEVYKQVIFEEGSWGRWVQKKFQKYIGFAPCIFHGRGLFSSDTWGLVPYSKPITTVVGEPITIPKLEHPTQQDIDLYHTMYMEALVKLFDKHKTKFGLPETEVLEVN
The test is described as follows: DGAT2 Enzymatic Activity Assay. Format: biochemical. Particulars: membrane prep of Sf-9 cells expressing hDGAT2; 25 μM diolein, 5 μM 13C oleoyl-CoA; 13C18-triolein by LC/MS/MS; read-out: DGAT2 IC50. On the procedure: Insect Cell Expression and Membrane Preparation
Sf-9 insect cells were maintained in Grace's insect cell culture medium with 10% heated-inactivated fetal bovine serum, 1% Pluronic F-68 and 0.14 μg/ml Kanamycine sulfate at 27° C. in a shaker incubator. After infection with untagged baculovirus expressing human DGAT2 (hDGAT2) at multiplicity of infection (MOI) 3 for 48 hours, cells were harvested. Cell pellets were suspended in buffer containing 10 mM Tris-HCl pH 7.5, 1 mM EDTA, 250 mM sucrose and Complete Protease Inhibitor Cocktail (Sigma Aldrich), and sonicated on ice. Cell debris were removed by centrifugation at 2000×g for 15 minutes. Membrane fractions were isolated by ultracentrifugation (100,000×g), resuspended in the same buffer, and frozen (−80° C.) for later use. The protein concentration was determined with the Pierce™ BCA Protein Assay Kit (Thermo Fisher Scientific). Expression of protein levels was analyzed by immunoblotting with rabbit anti-DGAT2 antibody (Abcam, ab102831) and donkey anti-rabbit IgG H&L Alexa Fluor® 647 (Abcam, ab150075) followed by detection using Typhoon FLA9000 (GE Healthcare).
LC/MS/MS analyses were performed using Thermal Fisher's LX4-TSQ Vantage system. This system consists of an Agilent binary high-performance liquid chromatography (HPLC) pump and a TSQ Vantage triple quadrupole MS/MS instrument. For each sample, 2 μL samples from the top organic layer of in-plate liquid-liquid extraction were injected onto a Thermo Betabasic C4 column (2.1 mm×20 mm, 5 μm particle size). The samples were then eluted using the following conditions; mobile phase: Isopropanol:acetonitrile/10 mM ammonium formate=50/35/15 (v/v/v), flow rate: 0.8 mL/min, temperature: 25° C. Data was acquired in positive mode using a heated electrospray ionization (HESI) interface. The operational parameters for the TSQ Vantage MS/MS instrument were a spray voltage of 3000 V, capillary temperature of 280° C., vaporizer temperature 400° C., sheath gas 45 arbitrary unit, Aux gas 10 arbitrary units, S-lens 165 and collision gas 1.0 mTorr. […] (SRM) chromatograms of ^13C18-triolein (Q1: 920.8>Q3: 621.3) and internal standard ^13C21-triolein (Q1: 923.8>Q3: 617.3) were collected for 33 sec. The peak area was integrated by Xcalibur Quan software. The ratio between the ^13C18triolein generated in the reaction and spiked in internal standard ^13C21-triolein was used to generate percentage inhibition and IC50 values. Compound percentage inhibition was calculated by the following formula: Inhibition %=1−[(compound response−low control)/(high control−low control)]×100%. Potent compounds were titrated and IC50 were calculated by 4 parameter sigmoidal curve fitting formula.
DGAT2 Enzymatic Activity Assay
DGAT2 activity was determined by measuring the amount of enzymatic product ^13C18-triolein (^13C-1,2,3-Tri(cis-9-octadecenoyl)glycerol) using the membrane prep mentioned above. The assay was carried out in ABgene 384-well assay plates in a final volume of 25 μL at rt. The assay mixture contained the following: assay buffer (100 mM Tris·Cl, pH 7.0, 20 mM MgCl2, 5% ethanol), 25 μM of diolein, 5 μM of ^13C oleoyl-CoA and 8 ng/μL of DGAT2 membrane.
In the case of `CC(n1c(=O)n(-c2cccc(OC(F)(F)C(F)F)c2)c2ccc(C(=O)NC3(C)CS(=O)(=O)C3)cc21)C(C)(C)O` (single isomer, unassigned) [Example 76a, 3-(3-hydroxy-3-methylbutan-2-yl)-N-(3-methyl-1,1-dioxidothietan-3-yl)-2-oxo-1-(3-(1,1,2,2-tetrafluoroethoxy)phenyl)-2,3-dihydro-1H-benzo[d]imidazole-5-carboxamide], the 50% inhibitory concentration (IC50) – broadly, the concentration that inhibits the measured activity by half – turned out to be 80 nM.

`CC(C)Oc1cccc(-n2c(=O)n(C(C)C)c3cc(C(=O)NC4(C)CCS(=O)(=O)CC4)cnc32)c1` [Example 101, 3-(3-isopropoxyphenyl)-1-isopropyl-N-(4-methyl-1,1-dioxo-thian-4-yl)-2-oxo-imidazo[4,5-b]pyridine-6-carboxamide]: the half-maximal inhibitory concentration (IC50) came to 506 nM. Turning to `CC(C)n1c(=O)n(-c2cccc(C#N)c2)c2ccc(C(=O)NC3(C)CCS(=O)(=O)CC3)cc21` [Example 52, 1-(3-cyanophenyl)-3-isopropyl-N-(4-methyl-1,1-dioxidotetrahydro-2H-thiopyran-4-yl)-2-oxo-2,3-dihydro-1H-benzo[d]imidazole-5-carboxamide], the IC50 is > 9990 nM. For the compound `CC(n1c(=O)n(-c2cccc(OCC(F)F)c2)c2ccc(C(=O)NC3(C)CCS(=O)(=O)CC3)cc21)C(C)(C)O` (single isomer, unassigned) [Example 68b, 1-(3-(2,2-difluoroethoxy)phenyl)-3-(3-hydroxy-3-methylbutan-2-yl)-N-(4-methyl-1,1-dioxidotetrahydro-2H-thiopyran-4-yl)-2-oxo-2,3-dihydro-1H-benzo[d]imidazole-5-carboxamide], the IC50 amounted to 1.8 nM. Take `CC(=O)Nc1ccc(-n2c(=O)n(C(C)C)c3cc(C(=O)NC4(C)CS(=O)(=O)C4)ccc32)cc1O` [Example 47, 1-(4-acetamido-3-hydroxyphenyl)-3-isopropyl-N-(3-methyl-1,1-dioxidothietan-3-yl)-2-oxo-2,3-dihydro-1H-benzo[d]imidazole-5-carboxamide]: the concentration for half-maximal inhibition (IC50) is > 10000 nM.

For `CCn1c(=O)n(-c2cccc(OC(F)F)c2)c2ccc(C(=O)NC3(C)CCS(=O)(=O)CC3)cc21` [Example 39, 1-(3-(Difluoromethoxy)phenyl)-3-ethyl-N-(4-methyl-1,1-dioxidotetrahydro-2H-thiopyran-4-yl)-2-oxo-2,3-dihydro-1H-benzo[d]imidazole-5-carboxamide], the 50% inhibitory concentration (IC50) is 109 nM. As for `CC(n1c(=O)n(-c2cc(OC(F)(F)F)ccc2F)c2ccc(C(=O)NC3(C)CCS(=O)(=O)CC3)cc21)C(C)(C)O` (single isomer, unassigned) [Example 71b, 1-(2-fluoro-5-(trifluoromethoxy)phenyl)-3-(3-hydroxy-3-methylbutan-2-yl)-N-(4-methyl-1,1-dioxidotetrahydro-2H-thiopyran-4-yl)-2-oxo-2,3-dihydro-1H-benzo[d]imidazole-5-carboxamide], the IC50 came to 5.4 nM.

Take `CC(C)n1c(=O)n(-c2cccc(F)c2)c2ccc(C(=O)NC3(C)CCS(=O)(=O)CC3)cc21` [Example 50, 1-(3-fluorophenyl)-3-isopropyl-N-(4-methyl-1,1-dioxidotetrahydro-2H-thiopyran-4-yl)-2-oxo-2,3-dihydro-1H-benzo[d]imidazole-5-carboxamide]: the half-maximal inhibitory concentration (IC50) was > 9990 nM. On to `CCn1c(=O)n(-c2cccc(OC(F)F)c2)c2ccc(C(=O)NC3(C)CS(=O)(=O)C3)cc21` [Example 40, 1-(3-(Difluoromethoxy)phenyl)-3-ethyl-N-(3-methyl-1,1-dioxidothietan-3-yl)-2-oxo-2,3-dihydro-1H-benzo[d]imidazole-5-carboxamide], for which the half-inhibitory concentration (IC50) came out at 194 nM. Regarding `CC(C)n1c(=O)n(-c2cc(OC(F)F)ncc2F)c2cc(F)c(C(=O)NC3(C)CS(=O)(=O)C3)cc21` [Example 123, 1-(2-(difluoromethoxy)-5-fluoropyridin-4-yl)-6-fluoro-3-isopropyl-N-(3-methyl-1,1-dioxidothietan-3-yl)-2-oxo-2,3-dihydro-1H-benzo[d]imidazole-5-carboxamide], the IC50 amounted to 73 nM. As to `CC(n1c(=O)n(-c2cc(OCC(F)F)ccc2F)c2cc(F)c(C(=O)NC3(C)CCS(=O)(=O)CC3)cc21)C(C)(C)O` (single isomer, unassigned) [Example 75a, 1-(5-(2,2-difluoroethoxy)-2-fluorophenyl)-6-fluoro-3-(3-hydroxy-3-methylbutan-2-yl)-N-(4-methyl-1,1-dioxidotetrahydro-2H-thiopyran-4-yl)-2-oxo-2,3-dihydro-1H-benzo[d]imidazole-5-carboxamide], the half-maximal inhibitory concentration (IC50) stood at 1.5 nM. As for `CC(n1c(=O)n(-c2cccc(OC(F)F)c2)c2ccc(C(=O)NC3(C)CCS(=O)(=O)CC3)cc21)C(C)(C)O` (single isomer, unassigned) [Example 67a, 1-(3-(difluoromethoxy)phenyl)-3-(3-hydroxy-3-methylbutan-2-yl)-N-(4-methyl-1,1-dioxidotetrahydro-2H-thiopyran-4-yl)-2-oxo-2,3-dihydro-1H-benzo[d]imidazole-5-carboxamide], the IC50 came to 1.6 nM.

The same test, now with this note: membrane prep of Sf-9 cells expressing hDGAT2; 25 μM diolein, 5 μM 13C oleoyl-CoA; 13C18-triolein by LC/MS/MS; read-out: Human DGAT2 IC50.
Consider `CCOc1cc(-n2c(=O)n(C(C)C)c3cc(C(=O)N[C@@]4(C)CCS(=O)(=O)C4)ccc32)c(F)cn1` [Example 17, (S)-1-(2-Ethoxy-5-fluoropyridin-4-yl)-3-isopropyl-N-(3-methyl-1,1-dioxidotetrahydrothiophen-3-yl)-2-oxo-2,3-dihydro-1H-benzo[d]imidazole-5-carboxamide], for which the IC50 was 122 nM. In the case of `CC(C)n1c(=O)n(-c2cccc(OC(F)F)c2)c2ccc(C(=O)NC3(C)CCS(=O)(=O)CC3)c(Cl)c21` [Example 128, 4-chloro-1-(3-(difluoromethoxy)phenyl)-3-isopropyl-N-(4-methyl-1,1-dioxidotetrahydro-2H-thiopyran-4-yl)-2-oxo-2,3-dihydro-1H-benzo[d]imidazole-5-carboxamide], the IC50 was determined as 1380 nM. `CC(C(N)=O)n1c(=O)n(-c2cccc(OC(F)F)c2)c2ccc(C(=O)NC3(C)CCS(=O)(=O)CC3)cc21` (single isomer, unassigned) [EX-85a, 3-(1-amino-1-oxopropan-2-yl)-1-(3-(difluoromethoxy)phenyl)-N-(4-methyl-1,1-dioxidotetrahydro-2H-thiopyran-4-yl)-2-oxo-2,3-dihydro-1H-benzo[d]imidazole-5-carboxamide]: the concentration for half-maximal inhibition (IC50) came to 551 nM. For `C[C@@]1(NC(=O)c2ccc3c(c2)n(-c2ccc(F)cc2)c(=O)n3-c2cccc(OC(F)F)c2)CCS(=O)(=O)C1` [Example 3, (R)-1-(3-(difluoromethoxy)phenyl)-3-(4-fluorophenyl)-N-(3-methyl-1,1-dioxidotetrahydrothiophen-3-yl)-2-oxo-2,3-dihydro-1H-benzo[d]imidazole-5-carboxamide], the IC50 worked out at 2.4 nM. Take `CC(C)n1c(=O)n(-c2cc(OC(F)F)ccc2F)c2ccc(C(=O)N[C@]3(C)CCS(=O)(=O)C3)cc21` [Example 82, (R)-1-(5-(Difluoromethoxy)-2-fluorophenyl)-3-isopropyl-N-(3-methyl-1,1-dioxidotetrahydrothiophen-3-yl)-2-oxo-2,3-dihydro-1H-benzo[d]imidazole-5-carboxamide]: the IC50 was determined as 5.7 nM.
